Laboratory results published in BindingDB's records for PubMed 36240545 (n/a, 2022).
pIC50: −log10 of the molar value.

Molecular target: T1, X-box-binding protein 1 (Homo sapiens, UniProt P17861)
T1 sequence (P17861 whole entry): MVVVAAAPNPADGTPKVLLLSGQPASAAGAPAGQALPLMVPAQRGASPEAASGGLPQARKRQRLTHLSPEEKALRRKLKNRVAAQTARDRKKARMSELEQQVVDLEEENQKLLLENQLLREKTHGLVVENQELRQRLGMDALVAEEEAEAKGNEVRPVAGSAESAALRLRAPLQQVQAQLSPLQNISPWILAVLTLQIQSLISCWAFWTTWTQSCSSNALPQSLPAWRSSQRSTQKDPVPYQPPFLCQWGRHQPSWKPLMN
Assay: Inhibition of thapsigargin-induced XBP1-luciferase activation in human HeLa cells incubated for 24 hrs by luciferase assay

With `CO[C@H]1/C=C/C=C/C=C/C[C@H](OC(=O)[C@@H](C)NC(=O)C2CCCCC2)[C@H](C)[C@@H](O)/C(C)=C\CCC2=C(SC)C(=O)C=C(NC(=O)C1)C2=O` the pIC50 was 4.17.
